Data from US20220397567A1, “NOVEL APPROACH FOR INCREASING CONTRACTILITY IN PATIENTS WITH SYSTOLIC HEART FAILURE” (THE TRUSTEES OF COLUMBIA UNIVERSITY IN THE CITY OF NEW YORK, priority 2019, published 2022).
Several values for one entry are separate records, joined by “and”; a condition that tells them apart may be missing. Identical values can stand only once. Entries after “also recorded” stand apart in the source; their conditions may differ.

Assays:
Rad = test: Whole cell proteomics (TMT SPS MS3) of non-transgenic cardiomyocytes, isoproterenol vs. no isoproterenol; type: cell-based, mouse; conditions: non-transgenic (NTG) mice cardiomyocytes; 10-minute isoproterenol
Protocol: With regard to whole cell proteomics, specifically cell lysis, protein digest and TMT labeling mass spectrometry analysis, the cells were lysed by homogenization (QIAshredder cartridges, Qiagen) in lysis buffer (2% SDS, 150 mM NaCl, 50 mM Tris pH 7.4). Lysates were reduced with 5 mM DTT, alkylated with 15 mM iodoacetamide for 30 minutes in the dark, alkylation reactions quenched with freshly prepared DTT added to a concentration of 50 mM and proteins precipitated by methanol/chloroform precipitation. Digests were carried out in 1M urea freshly prepared in 200 mM EPPS pH 8.5 in presence of 2% acetonitrile (v/v) with LysC (Wako, 2 mg/ml, used 1:75 w/w protease:substrates during digest) for 3 hours at room temperature and after subsequent addition of trypsin (Promega #V5111, stock 1:100 w/w protease:substrates) over night at 37° C. Missed cleavage rate was assayed from a small aliquot by mass spectrometry. […]
For the mass spectrometry analysis, data collection followed a MultiNotch MS^3 TMT method using an Orbitrap Lumos mass spectrometer coupled to a Proxeon EASY-nLC 1200 liquid chromatography (LC) system (both Thermo Fisher Scientific). […] In order to obtain quantitative information, MS^3 precursors were fragmented by high-energy collision-induced dissociation (HCD) and analyzed in the Orbitrap at a resolution of 50,000 at 200 Th. […]

[1] = test system: CaV1.2 neighbourhood proteins (Rad, PKA catalytic subunit, Sorbs2); test: APEX2 proximity labeling with TMT SPS MS3 in isolated cardiomyocytes, isoproterenol vs. no isoproterenol; type: cell-based, mouse; conditions: for decrease in Rad (proximity labeling, iso vs. no iso) / increase in PKA catalytic subunit (proximity labeling, iso vs. no iso): 1 μM isoproterenol, 10 minutes
Protocol: Thus, proximity-labeling in cardiomyocytes treated with isoproterenol was compared to untreated controls. Cardiomyocytes were enzymatically isolated from two α1C-APEX2 mice, mixed, loaded with biotin-phenol and exposed to isoproterenol or vehicle for 10 minutes at room temperature. For the final minute, labeling was initiated with H2O2. This was repeated for myocytes from 4 additional sets of mice (total: 5 sets of biological replicates; 10 mice). Biotinylated proteins were purified and detected using TMT SPS MS^3. The isobaric labeling allowed simultaneous quantification of all proteins measured rather than just a select subset, thus enabling statistical analysis of relative enrichment between vehicle and isoproterenol treatment. Candidates in the upper left quadrant have reduced labeling (likely indicating reduced proximity) after isoproterenol and candidates in the upper right quadrant have increased labeling (likely indicating increased proximity) after isoproterenol. Mitochondrial/nuclear proteins were removed from the analysis.
For the proximity labeling, isolated ventricular cardiomyocytes were incubated in labeling solution with 0.5 μM biotin-phenol (Iris-biotech) for 30 minutes. During the final 10 minutes of labeling, 1 μM isoproterenol (Sigma 15627) was added. To initiate labeling, H2O2 (Sigma H1009) was added to a final concentration of 1 mM for 1 min Exactly 1 minute after H2O2 treatment, the cells were washed three times with cold quenching solution containing (in mM) 10 Sodium ascorbate (VWR 95035-692), 5 Trolox (Sigma 238813), and 10 Sodium azide (Sigma S2002). After the cells were harvested by centrifugation, the quenching solution was aspirated and the pellet was flash-frozen and stored at −80° C. until streptavidin pull-down.
With regard to the processing of biotinylated proteins for mass spectrometry, proteins were precipitated with Trichloroacetic acid (TCA; Sigma T9159) and then centrifuged at 21,130×g at 4° C. for 10 minutes. The pellet was washed with −20° C. cold acetone (Sigma 650501), vortexed, and centrifuged at 21,130×g at 4° C. for 10 minutes. Following centrifugation, acetone was aspirated and the pellet was acetone-washed again three more times.

[2] = test system: Rad in CaV1.2 neighbourhood; test: APEX2 proximity labeling with TMT mass spectrometry in Langendorff-perfused α1C-APEX2 hearts; design: species or system mouse; conditions: Langendorff-perfused α1C-APEX2 whole hearts; 1 μM isoproterenol, 5 minutes
Protocol: The inventors also probed the impact of isoproterenol on the CaV1.2 proteome signature in Langendorff-perfused whole hearts (FIG. 9B), tracking 2,610 proteins from 10 hearts in parallel (FIG. 6K, FIG. 15C and FIG. 16A). The inventors monitored phospholamban phosphorylation to confirm that the β-adrenergic signaling pathway in cardiomyocytes is preserved in the presence of biotin-phenol and H2O2 (FIG. 14C and FIG. 14D).
For biotinylation in Langendorff-perfused hearts, mice were injected with 5 mg/kg propranolol-HCl (Sigma PHR1308) to suppress adrenergic stimulation during the isoflurane anesthesia and cardiectomy. Hearts were retrograde perfused with Krebs' solution for 10 minutes prior to addition of biotin-phenol for 15 minutes. During the final 5 minutes, 1 μM Isoproterenol (Sigma 1351005) or vehicle was added to the perfusate. The hearts were then perfused with 1 mM H2O2 for 1 minute, followed by 3-minutes of perfusion of quenching solution. Electrocardiograms were monitored throughout the experiment to ensure viability of the preparation and an isoproterenol-induced increase in heart rate. […]

[3] = test system: CFP-tagged Rad localization in cardiomyocytes; test: Confocal fluorescence of CFP-Rad at membrane and in cytosol of cardiomyocytes before and after isoproterenol; type: cell-based; conditions: CFP-Rad adenovirus-infected rat cardiomyocytes; 5 minutes after superfusion
Text: Mass spectrometry identified phosphorylated proteins from biotinylated, streptavidin-purified samples from APEX2 mice, and from whole hearts of wild-type (WT) mice treated with isoproterenol. […] Rad, a member of the RGK family of GTP-binding proteins, is an inhibitor of voltage-gated Ca^2+ channels and is also a PKA target. […] To further explore whether β-agonists can alter membrane-localization of Rad relative, rat cardiomyocytes were infected with adenoviruses harboring cyan fluorescent protein (CFP)-tagged Rad. The fluorescence of CFP-Rad at the membrane and in the cytosol was quantified before and after isoproterenol. The number of exposures were limited to avoid photo-bleaching.

[4] = test system: CaV2.2 (α1B+β2B) channels in HEK cells; test: Perforated whole-cell patch clamp of Ba2+ current, forskolin stimulation of CaV2.2 in HEK cells; type: cell-based, human
Text: N-type Ca^2+ channels (CaV2.2) are widely expressed, play an essential role in neurotransmitter release, and are targets for the development of drugs to relieve chronic pain. The inventors expressed the CaV2.2 α1B subunit with β2B and Rad in HEK cells. […] Attenuating binding of Rad […] prevented the forskolin-induced modulation of CaV2.2 current (FIG. 19F). In the above, with regard to clone construction and cell culture, all mouse N-terminal-GFP-tagged mouse Rad (accession #XM_006531206) constructs in a pEGFP-C1 vector were generated by gene-synthesis (Gene Universal). The human CaV2.2 (pSAD442-1) was a gift from Diane Lipscombe (Addgene plasmid #62574). […] The media was changed 4-6 hours after transfection. The cells were split onto coverslips coated with attachment factor protein (Gibco). Electrophysiological recordings were carried out at room temperature 24-48 hours after transfection. For HEK293T cell experiments involving the forskolin-induced stimulation of CaV1.2 and CaV2.2 currents, perforated whole-cell patch clamp technique was implemented to minimize current run-down and preserve the intracellular milieu. Amphotericin B (Sigma A9528) was initially dissolved in DMSO (20 mg/ml) and used in the pipette solution at a final concentration of 200 μg/ml. The tip of the pipette was filled with amphotericin-free solution (in mM): 80 Cesium Gluconate, 40 CsCI, 10 HEPES, 10 BAPTA, 1 MgCl2, 1 Mg-ATP, pH adjusted to 7.2 with CsOH. The pipette was backfilled with (in mM): 125 CsCI, 10 HEPES, 4 CaCl2, 1 MgCl2, pH-7.2 with CsOH; containing amphotericin, 200 μg/ml. CaCl2 (4 mM) was added to the intracellular patch electrode solution to enable the detection of conversion from perforated to ruptured configuration. […] For experiments with HEK293T cells, in addition to step protocols, we used a ramp protocol with a 200 ms voltage ramp from -60 mV (or -70 mV for CaV1.3) to +60 mV applied every 10 s- to monitor the near-steady-state I-V relationship. All experiments were performed at room temperature, 22±1° C. Cells were selected based on co-transfection of a vector containing GFP in the absence of Rad, and GFP-conjugated Rad for the experiments with Rad transfected. For both cardiomyocytes and HEK293 cells, cells without a stable baseline (potentially due to run-down or run-up) were not studied. The voltage steps protocol used in cardiomyocytes studies evaluated […]), which was recalculated in […] to G=G(V) as […]). For HEK cells experiments, the inventors used a ramp protocol (FIG. 17B). The experimental records were I=I(t), where t=time. The inventors transformed these records to I=I(V), which were then further transformed to G=G(V) in […]). The parameters of voltage-dependent activation were obtained using a modified Boltzmann distribution. […]

[5] = test system: CaV1.2 (α1C+β2B) channels in HEK293T cells; test: Perforated whole-cell patch clamp of Ba2+ current, forskolin stimulation of CaV1.2 reconstituted in HEK293T cells; type: cell-based, rabbit α1C, human β2B, mouse Rad
Text: The robust heterologous reconstitution of PKA regulation of L-type Ca^2+ currents has been long pursued as a crucial step. […] To preserve the normal intracellular milieu and signaling cascades, the inventors used perforated, whole-cell patch clamp to assess function. The inventors used Ba^2+ as the charge carrier to minimize inactivation and depolarized the membrane potential with either a voltage step to 0 mV or a voltage ramp from −60 mV to +60 mV.
In the above, with regard to clone construction and cell culture, all mouse N-terminal-GFP-tagged mouse Rad (accession #XM_006531206) constructs in a pEGFP-C1 vector were generated by gene-synthesis (Gene Universal). The human CaV2.2 (pSAD442-1) was a gift from Diane Lipscombe (Addgene plasmid #62574). HEK293T cells were cultured in DMEM with 10% FBS, 1% Pen/Strep, and transfected with 3 μg rabbit α1C (accession #X15539) or α1B (for CaV2.2 experiments), 3 μg human β2B (NM-201590.3) and 0.5 μg N-terminal-GFP-tagged mouse Rad using Lipofectamine 2000 (Thermo Fisher Scientific). The media was changed 4-6 hours after transfection. The cells were split onto coverslips coated with attachment factor protein (Gibco). Electrophysiological recordings were carried out at room temperature 24-48 hours after transfection.
For HEK293T cell experiments involving the forskolin-induced stimulation of CaV1.2 and CaV2.2 currents, perforated whole-cell patch clamp technique was implemented to minimize current run-down and preserve the intracellular milieu. Amphotericin B (Sigma A9528) was initially dissolved in DMSO (20 mg/ml) and used in the pipette solution at a final concentration of 200 μg/ml. The tip of the pipette was filled with amphotericin-free solution (in mM): 80 Cesium Gluconate, 40 CsCI, 10 HEPES, 10 BAPTA, 1 MgCl2, 1 Mg-ATP, pH adjusted to 7.2 with CsOH. The pipette was backfilled with (in mM): 125 CsCI, 10 HEPES, 4 CaCl2, 1 MgCl2, pH-7.2 with CsOH; containing amphotericin, 200 μg/ml. CaCl2 (4 mM) was added to the intracellular patch electrode solution to enable the detection of conversion from perforated to ruptured configuration. The external solution contained (in mM): 130 tetraethylammonium methanesulfonate, 10 HEPES, 1 MgCl2, 10 (with Rad expression) or 2 (without Rad expression) BaCI2, 5 Glucose, pH adjusted to pH 7.4 with CsOH. For experiments with HEK293T cells, in addition to step protocols, we used a ramp protocol with a 200 ms voltage ramp from −60 mV (or −70 mV for CaV1.3) to +60 mV applied every 10 s- to monitor the near-steady-state I-V relationship. All experiments were performed at room temperature, 22±1° C. Cells were selected based on co-transfection of a vector containing GFP in the absence of Rad, and GFP-conjugated Rad for the experiments with Rad transfected. For both cardiomyocytes and HEK293 cells, cells without a stable baseline (potentially due to run-down or run-up) were not studied.
The voltage steps protocol used in cardiomyocytes studies evaluated IIpeak=Ipeak (V), which was recalculated in […] to G=G(V) as G=I/(V−Erev). For HEK cells experiments, the inventors used a ramp protocol (FIG. 17B). The experimental records were I=I(t), where t=time. The inventors transformed these records to I=I(V), which were then further transformed to G=G(V) in […] (FIG. 17B).

[6] = test system: CaV1.3 (α1D+β2B) channels in HEK293T cells; test: Perforated whole-cell patch clamp of Ba2+ current, forskolin stimulation of CaV1.3 in HEK293T cells; type: cell-based; conditions: cells expressing α1D+β2B+Rad
Protocol: In adrenal chromaffin cells and the sinus node cells of the heart, L-type CaV1.3 channels are robustly stimulated by PKA. […] Thus, like CaV1.2, Rad is the missing ingredient. For HEK293T cell experiments involving the forskolin-induced stimulation of CaV1.2 and CaV2.2 currents, perforated whole-cell patch clamp technique was implemented to minimize current run-down and preserve the intracellular milieu. Amphotericin B (Sigma A9528) was initially dissolved in DMSO (20 mg/ml) and used in the pipette solution at a final concentration of 200 μg/ml. The tip of the pipette was filled with amphotericin-free solution (in mM): 80 Cesium Gluconate, 40 CsCI, 10 HEPES, 10 BAPTA, 1 MgCl2, 1 Mg-ATP, pH adjusted to 7.2 with CsOH. The pipette was backfilled with (in mM): 125 CsCI, 10 HEPES, 4 CaCl2, 1 MgCl2, pH-7.2 with CsOH; containing amphotericin, 200 μg/ml. CaCl2 (4 mM) was added to the intracellular patch electrode solution to enable the detection of conversion from perforated to ruptured configuration. […] For experiments with HEK293T cells, in addition to step protocols, we used a ramp protocol with a 200 ms voltage ramp from -60 mV (or -70 mV for CaV1.3) to +60 mV applied every 10 s- to monitor the near-steady-state I-V relationship. All experiments were performed at room temperature, 22±1° C. Cells were selected based on co-transfection of a vector containing GFP in the absence of Rad, and GFP-conjugated Rad for the experiments with Rad transfected. For both cardiomyocytes and HEK293 cells, cells without a stable baseline (potentially due to run-down or run-up) were not studied. The voltage steps protocol used in cardiomyocytes studies evaluated […]), which was recalculated in […] to G=G(V) as […]). For HEK cells experiments, the inventors used a ramp protocol (FIG. 17B). The experimental records were I=I(t), where t=time. The inventors transformed these records to I=I(V), which were then further transformed to G=G(V) in […]). The parameters of voltage-dependent activation were obtained using a modified Boltzmann distribution. […]

[7] = test system: CaV1.2 channels in cardiomyocytes; test: Whole-cell patch clamp of nisoldipine-insensitive Ca2+ current in cardiomyocytes of transgenic mice; type: cell-based, mouse
Text: With regard to the isolation of adult cardiac myocytes, mice ventricular myocytes were isolated by enzymatic digestion using a Langendorff perfusion apparatus. Cardiomyocytes were isolated from 8-12 week-old non-transgenic and transgenic mice.
With regard to whole cell patch clamp electrophysiology, isolated cardiomyocytes or HEK cells on glass 8×8 mm coverslips were placed in Bioptechs Delta T Dishes filled with solution containing (in mM): 112 NaCl, 5.4 KCl, 1.7 NaH2PO4. 1.6 MgCl2, 20.4 HEPES (pH 7.2), 30 Taurine, 2 DL-Carnitine, 10.3 Creatine, 5.4 Glucose. The petri dishes were mounted on the stage of an inverted microscope and served as a perfusion chamber. After establishing a seal and achieving whole-cell configuration, external solutions were changed by fast local perfusion method.
For cardiomyocytes, pipette resistance was between 1-3 ma Membrane currents were measured by conventional (ruptured) whole-cell patch-clamp method using a MultiClamp 700B or Axopath200B amplifier and pCLAMP 10.7 software (Molecular Devices). Capacitance transients and series resistance were compensated. Voltage was corrected for liquid junction potential (−10 mV) during analysis. Leak currents were subtracted by a P/4 protocol. […]

[8] = CaV2.2 α1B+β2B co-expressed with Rad
[9] = CaV2.2 α1B+β2B co-expressed with Rem
[10] = HEK cells expressing 35-mutant α1C+28-mutant β2B+Rad
[11] = cells expressing α1C+β2B+Rad, forskolin vs. no forskolin

## CC(C)NCC(O)c1ccc(O)c(O)c1 (centres unmarked) [isoproterenol]
Rad
  effect on the amount of Rad (whole-cell, not proximity labeled): no significant effect; also recorded: unchanged
[1]; α1C-APEX2 and β2B-APEX2 cardiomyocytes and α1C-APEX2 whole hearts
  decrease in the amount of Rad, all three approaches: 30-50%
[1]; α1C-APEX2 cardiomyocytes
  decrease in Rad (proximity labeling, iso vs. no iso): ~50%
  increase in PKA catalytic subunit (proximity labeling, iso vs. no iso): 50%
[1]; α1C-APEX2 cardiomyocytes, isoproterenol 10 minutes
  reduction in Sorbin and SH3 domain containing 2 (Sorbs2): ~57%
[1]; β2B-APEX2 cardiomyocytes
  decrease in Rad (proximity labeling, iso vs. no iso): 30%
  increase in PKA catalytic subunit (proximity labeling, iso vs. no iso): 68%
[2]
  decrease in Rad (proximity labeling, iso vs. no iso): 36%
[3]
  decrease of Rad localized at the membrane: 21%±3%
  increase of cytosolic Rad: 20%±5%

## C=C[C@@]1(C)CC(=O)[C@]2(O)[C@@]3(C)[C@@H](O)CCC(C)(C)[C@@H]3[C@H](O)[C@H](OC(C)=O)[C@@]2(C)O1 [forskolin]
[4]; [8]
  increase of Gmax, mean: 2.2 fold
  shift of V50 for activation: −3.7 mV
[4]; [9]
  increase of Gmax: 1.6 fold
  shift of V50 for activation: −4.2 mV
[5]; [10]
  increase of Gmax, as much as: ≤ 3.1 fold
  increase of Gmax, mean: 1.9 fold
  shift of V50 for activation: −3.3 mV
[5]; cells expressing 9*-α1C, β2B and Rad
  increase of Gmax, mean: 1.6 fold
[5]; cells expressing α1C+β2B+Rad
  shift of V50 for activation: −5 mV
[5]; [11]
  increase of maximal conductance (Gmax), as much as: ≤ 4.5 fold
  increase of maximal conductance (Gmax), mean: 1.5 fold and 1.6 fold
[6]
  increase of Gmax, as much as: ≤ 2.3 fold
  increase of Gmax, mean: 1.9 fold
  shift of V50 for activation: −4.3 mV
[7]; 9* exon-containing CaV1.2 channels
  increase of Gmax, mean: 1.4 fold
[7]; transgenic pWT α1C cardiomyocytes, 10 μM forskolin
  increase of nisoldipine-insensitive maximal conductance (Gmax), mean: 1.4 fold
